Results as given in patent US7153858B2, “Arylpiperazinyl compounds” (Epix Delaware, Inc., priority 2003, dated 2006).
Structures can show the parent of a compound that is named as a salt. Where two headings read alike, the source gives them in different places.

Legend:
Type in all cases: binding
α1 = α1 cross-reactivity (% inhibition / Ki), Table 1
α2 = α2 cross-reactivity (% inhibition / Ki), Table 1
5-HT1A = biological target: T1, 5-HT1A (Homo sapiens, UniProt P08908); test: 5-HT1A receptor affinity (Ki), Table 1
T1 sequence (P08908 1-422): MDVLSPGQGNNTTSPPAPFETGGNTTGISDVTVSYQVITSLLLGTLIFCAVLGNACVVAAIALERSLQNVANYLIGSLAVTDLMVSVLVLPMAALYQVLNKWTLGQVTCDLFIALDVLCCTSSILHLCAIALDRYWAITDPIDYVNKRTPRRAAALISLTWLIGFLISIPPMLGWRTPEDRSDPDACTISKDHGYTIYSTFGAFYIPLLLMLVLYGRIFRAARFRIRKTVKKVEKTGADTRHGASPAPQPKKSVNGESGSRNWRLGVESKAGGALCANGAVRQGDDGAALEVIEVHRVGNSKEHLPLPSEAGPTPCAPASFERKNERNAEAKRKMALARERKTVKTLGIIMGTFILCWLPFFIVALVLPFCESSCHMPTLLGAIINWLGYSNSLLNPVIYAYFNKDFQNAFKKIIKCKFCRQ

Structure (SMILES)	α1 % inhibition (α1) [%]	α2 % inhibition (α2) [%]	Ki (5-HT1A; read-out: 5-HT1A (Ki)) [nM]	Ki (5-HT1A; 5-HT1A (Ki)) [nM]	α1 % inhibition (α1; HCl salt) [%]	α2 % inhibition (α2; HCl salt) [%]
O=C(Nc1cccc(N2CCN(CCCCNS(=O)(=O)CC3CCCCC3)CC2)c1)C1CC1 [Cyclopropanecarboxylic acid {3-[4-(4-cyclohexylmethanesulfonylamino-butyl)-piperazin-1-yl]-phenyl}-amide]	22	<10	8.9	–	–	–
CC(=O)Nc1cccc(N2CCN(CCCCNS(=O)(=O)CC(C)C)CC2)c1 [N-(3-{4-[4-(2-Methyl-propane-1-sulfonylamino)-butyl]-piperazin-1-yl}-phenyl)-acetamide]	5	0	11	–	–	–
CC(=O)Nc1cccc(N2CCN(CCCCNS(=O)(=O)C(C)C)CC2)c1 [N-(3-{4-[4-(Propane-2-sulfonylamino)-butyl]-piperazin-1-yl}-phenyl)-acetamide]	<10	12	24	–	–	–
CC(=O)Nc1cccc(N2CCN(CCCCNS(=O)(=O)CC3CCCCC3)CC2)c1 [N-{3-[4-(4-Cyclohexylmethanesulfonylamino-butyl)-piperazin-1-yl]-phenyl}-acetamide]	–	<10	5.1 to 11	–	–	–
Cc1ccc(S(=O)(=O)NCCCCN2CCN(c3cccc(NS(C)(=O)=O)c3)CC2)cc1 [N-{4-[4-(3-Methanesulfonylamino-phenyl)-piperazin-1-yl]-butyl}-4-methyl-benzenesulfonamide]	51	21	46	–	–	–
CCCC(=O)Nc1cccc(N2CCN(CCCCNS(=O)(=O)c3ccc(C)cc3)CC2)c1 [N-(3-{4-[4-(Toluene-4-sulfonylamino)-butyl]-piperazin-1-yl}-phenyl)-butyramide]	12	12	56	–	–	–
CC(=O)Nc1cccc(N2CCNCC2)c1.Cl [N-(3-Piperazin-1-yl-phenyl)-acetamide HCl]	0	35	–	2.9	–	–
O=S(=O)(CC1CCCCC1)NCCCCN1CCN(c2ccccn2)CC1 [C-Cyclohexyl-N-[4-(4-pyridin-2-yl-piperazin-1-yl)-butyl]-methanesulfonamide]	81	51	6.5	–	–	–
Cc1ccc(S(=O)(=O)NCCCCN2CCN(c3cccc(NC(=O)C(C)C)c3)CC2)cc1 [N-(3-{4-[4-(Toluene-4-sulfonylamino)-butyl]-piperazin-1-yl}-phenyl)-isobutyramide]	47	12	47	–	–	–
CCC(=O)Nc1cccc(N2CCN(CCCCNS(=O)(=O)c3ccc(C)cc3)CC2)c1 [N-(3-{4-[4-(Toluene-4-sulfonylamino)-butyl]-piperazin-1-yl}-phenyl)-propionamide]	0	31	213	–	–	–
Cc1ccc(S(=O)(=O)NCCCCN2CCN(c3cccc(NC(=O)C(C)(C)C)c3)CC2)cc1 [2,2-Dimethyl-N-(3-{4-[4-(toluene-4-sulfonylamino)-butyl]-piperazin-1-yl}-phenyl)-propionamide]	0	11	–	–	–	–
Cc1ccc(S(=O)(=O)NCCCCN2CCN(c3cccc([N+](=O)[O-])c3)CC2)cc1 [4-Methyl-N-{4-[4-(3-nitro-phenyl)-piperazin-1-yl]-butyl}-benzenesulfonamide]	56	14	125	–	–	–
Cc1ccc(S(=O)(=O)NCCCCN2CCN(c3cccc([N+](=O)[O-])c3)CC2)cc1 [4-Methyl-N-{4-[4-(3-nitro-phenyl)-piperazin-1-yl]-butyl}-benzenesulfonamide HCl salt]	–	–	105	–	61	23
COc1ccccc1N1CCN(CCCCNS(=O)(=O)CC2CCCCC2)CC1 [C-Cyclohexyl-N-{4-[4-(2-methoxy-phenyl)-piperazin-1-yl]-buty] [C-Cyclohexyl-N-{4-[4-(2-methoxy-phenyl)-piperazin-1-yl]-butyl}-methanesulfonamide]	98	–	–	–	–	–
